Data published in ChEMBL document CHEMBL3885881, “DrugMatrix”.

Species: Rattus norvegicus
Type: toxicity, organism-based, Sprague-Dawley
Conditions: in vivo, po, route oral GAVAGE, […]; for ABSOLUTE EOSINOPHIL / ABSOLUTE LYMPHOCYTE / ABSOLUTE MONOCYTE / ABSOLUTE SEGMENTED NEUTROPHIL / BASOPHIL / EOSINOPHIL / ERYTHROCYTE COUNT / HEMATOCRIT / HEMOGLOBIN / LEUKOCYTE COUNT / LYMPHOCYTE / MEAN CORPUSCULAR HEMOGLOBIN / MEAN CORPUSCULAR HEMOGLOBIN CONCENTRATION / MEAN CORPUSCULAR VOLUME / MONOCYTE / NEUTROPHIL / NUCLEATED RED BLOOD CELLS / PLATELET COUNT: tissue Blood; for ALANINE AMINOTRANSFERASE / ALBUMIN / ALKALINE PHOSPHATASE / ASPARTATE AMINOTRANSFERASE / BLOOD UREA NITROGEN / CARBON DIOXIDE / CHLORIDE / CHOLESTEROL / CREATINE PHOSPHOKINASE / CREATININE / GLUCOSE / LACTATE DEHYDROGENASE / LIPASE / PHOSPHORUS / POTASSIUM / SODIUM / TOTAL BILIRUBIN / TOTAL PROTEIN / URIC ACID: tissue Plasma
[1] = 130 mg/kg, 24 h, dose level Low, time 1 day
[2] = 500 mg/kg, 6 h, dose level High, time 0.25 day
[3] = 500 mg/kg, 24 h, dose level High, time 1 day

Description: DrugMatrix - Regimen: Single

CCOC(=O)C(C)(C)Oc1ccc(Cl)cc1 [CLOFIBRATE]
ABSOLUTE EOSINOPHIL [1]: 55.33 CELLS/uL
ABSOLUTE LYMPHOCYTE [1]: 15484.17 CELLS/uL
ABSOLUTE MONOCYTE [1]: 278.5 CELLS/uL
ABSOLUTE SEGMENTED NEUTROPHIL [1]: 965.33 CELLS/uL
BASOPHIL [1]: 0%
EOSINOPHIL [1]: 0.33%
ERYTHROCYTE COUNT [1]: 5.03 x10E6/uL
HEMATOCRIT [1]: 32.6%
HEMOGLOBIN [1]: 13.25 G/DL
LEUKOCYTE COUNT [1]: 16.78 x10E3/uL
LYMPHOCYTE [1]: 92.17%
MEAN CORPUSCULAR HEMOGLOBIN [1]: 26.33 pg
MEAN CORPUSCULAR HEMOGLOBIN CONCENTRATION [1]: 40.65 G/DL
MEAN CORPUSCULAR VOLUME [1]: 64.78 fL
MONOCYTE [1]: 1.67%
NEUTROPHIL [1]: 5.83%
NUCLEATED RED BLOOD CELLS [1]: 0 /100WBC
PLATELET COUNT [1]: 862.83 x10E3/uL
ALANINE AMINOTRANSFERASE [1]: 67 u/L
ALBUMIN [1]: 4.33 G/DL
ALKALINE PHOSPHATASE [1]: 318.17 u/L
ASPARTATE AMINOTRANSFERASE [1]: 75.17 u/L
BLOOD UREA NITROGEN [1]: 12.67 mg/dL
CARBON DIOXIDE [1]: 32 mmol/L
CHLORIDE [1]: 100 MEQ/L
CHOLESTEROL [1]: 47.33 mg/dL
CREATINE PHOSPHOKINASE [1]: 215.5 u/L
CREATININE [1]: 0.16 mg/dL
GLUCOSE [1]: 132.67 mg/dL
LACTATE DEHYDROGENASE [1]: 108.83 u/L
LIPASE [1]: 10.5 u/L
PHOSPHORUS [1]: 9.12 mg/dL
POTASSIUM [1]: 6.21 MEQ/L
SODIUM [1]: 142.78 MEQ/L
TOTAL BILIRUBIN [1]: 0.17 mg/dL
TOTAL PROTEIN [1]: 5.58 G/DL
URIC ACID [1]: 1.07 mg/dL
ABSOLUTE EOSINOPHIL [2]: 41.33 CELLS/uL
ABSOLUTE LYMPHOCYTE [2]: 7521 CELLS/uL
ABSOLUTE MONOCYTE [2]: 204.83 CELLS/uL
ABSOLUTE SEGMENTED NEUTROPHIL [2]: 899.5 CELLS/uL
BASOPHIL [2]: 0%
EOSINOPHIL [2]: 0.5%
ERYTHROCYTE COUNT [2]: 5.56 x10E6/uL
HEMATOCRIT [2]: 35.4%
HEMOGLOBIN [2]: 13.87 G/DL
LEUKOCYTE COUNT [2]: 8.67 x10E3/uL
LYMPHOCYTE [2]: 86.5%
MEAN CORPUSCULAR HEMOGLOBIN [2]: 24.97 pg
MEAN CORPUSCULAR HEMOGLOBIN CONCENTRATION [2]: 39.18 G/DL
MEAN CORPUSCULAR VOLUME [2]: 63.73 fL
MONOCYTE [2]: 2.33%
NEUTROPHIL [2]: 10.67%
NUCLEATED RED BLOOD CELLS [2]: 0 /100WBC
PLATELET COUNT [2]: 1195.5 x10E3/uL
ALANINE AMINOTRANSFERASE [2]: 52.5 u/L
ALBUMIN [2]: 4.53 G/DL
ALKALINE PHOSPHATASE [2]: 309.5 u/L
ASPARTATE AMINOTRANSFERASE [2]: 94.5 u/L
BLOOD UREA NITROGEN [2]: 9.33 mg/dL
CARBON DIOXIDE [2]: 22.5 mmol/L
CHLORIDE [2]: 100.67 MEQ/L
CHOLESTEROL [2]: 65.33 mg/dL
CREATINE PHOSPHOKINASE [2]: 333.17 u/L
CREATININE [2]: 0.16 mg/dL
GLUCOSE [2]: 130.33 mg/dL
LACTATE DEHYDROGENASE [2]: 146.83 u/L
LIPASE [2]: 9.83 u/L
PHOSPHORUS [2]: 11.68 mg/dL
POTASSIUM [2]: 6.42 MEQ/L
SODIUM [2]: 143.4 MEQ/L
TOTAL BILIRUBIN [2]: 0.18 mg/dL
TOTAL PROTEIN [2]: 6 G/DL
URIC ACID [2]: 1.37 mg/dL
ABSOLUTE EOSINOPHIL [3]: 42 CELLS/uL
ABSOLUTE LYMPHOCYTE [3]: 10953.5 CELLS/uL
ABSOLUTE MONOCYTE [3]: 221.67 CELLS/uL
ABSOLUTE SEGMENTED NEUTROPHIL [3]: 1432.83 CELLS/uL
BASOPHIL [3]: 0%
EOSINOPHIL [3]: 0.33%
ERYTHROCYTE COUNT [3]: 5.6 x10E6/uL
HEMATOCRIT [3]: 35.22%
HEMOGLOBIN [3]: 14.02 G/DL
LEUKOCYTE COUNT [3]: 12.65 x10E3/uL
LYMPHOCYTE [3]: 86.83%
MEAN CORPUSCULAR HEMOGLOBIN [3]: 25.02 pg
MEAN CORPUSCULAR HEMOGLOBIN CONCENTRATION [3]: 39.8 G/DL
MEAN CORPUSCULAR VOLUME [3]: 62.93 fL
MONOCYTE [3]: 1.67%
NEUTROPHIL [3]: 11.17%
NUCLEATED RED BLOOD CELLS [3]: 0 /100WBC
PLATELET COUNT [3]: 1112.33 x10E3/uL
ALANINE AMINOTRANSFERASE [3]: 93.33 u/L
ALBUMIN [3]: 4.55 G/DL
ALKALINE PHOSPHATASE [3]: 411.33 u/L
ASPARTATE AMINOTRANSFERASE [3]: 162.83 u/L
BLOOD UREA NITROGEN [3]: 11.67 mg/dL
CARBON DIOXIDE [3]: 33.5 mmol/L
CHLORIDE [3]: 97.83 MEQ/L
CHOLESTEROL [3]: 34.83 mg/dL
CREATINE PHOSPHOKINASE [3]: 245.67 u/L
CREATININE [3]: 0.19 mg/dL
GLUCOSE [3]: 137.17 mg/dL
LACTATE DEHYDROGENASE [3]: 114.17 u/L
LIPASE [3]: 9.83 u/L
PHOSPHORUS [3]: 10.23 mg/dL
POTASSIUM [3]: 6.67 MEQ/L
SODIUM [3]: 143.3 MEQ/L
TOTAL BILIRUBIN [3]: 0.25 mg/dL
TOTAL PROTEIN [3]: 5.77 G/DL
URIC ACID [3]: 1.18 mg/dL
